Assay results: ChEMBL document CHEMBL1201862, “PubChem BioAssay data set” (2004)
Active and inactive are the calls of the source.

How the values were obtained:
[1] = biological target: T1, Protein RecA (Mycobacterium tuberculosis, UniProt P9WHJ3); assay: Fluorescence Cell-Free Homogeneous Dose Retest to Identify Inhibitors of RecA-Intein Splicing Activity. [Related pubchem assays (depositor defined):AID2097, AID2223, AID489010, AID492950]; format: functional
T1 sequence (P9WHJ3 whole entry): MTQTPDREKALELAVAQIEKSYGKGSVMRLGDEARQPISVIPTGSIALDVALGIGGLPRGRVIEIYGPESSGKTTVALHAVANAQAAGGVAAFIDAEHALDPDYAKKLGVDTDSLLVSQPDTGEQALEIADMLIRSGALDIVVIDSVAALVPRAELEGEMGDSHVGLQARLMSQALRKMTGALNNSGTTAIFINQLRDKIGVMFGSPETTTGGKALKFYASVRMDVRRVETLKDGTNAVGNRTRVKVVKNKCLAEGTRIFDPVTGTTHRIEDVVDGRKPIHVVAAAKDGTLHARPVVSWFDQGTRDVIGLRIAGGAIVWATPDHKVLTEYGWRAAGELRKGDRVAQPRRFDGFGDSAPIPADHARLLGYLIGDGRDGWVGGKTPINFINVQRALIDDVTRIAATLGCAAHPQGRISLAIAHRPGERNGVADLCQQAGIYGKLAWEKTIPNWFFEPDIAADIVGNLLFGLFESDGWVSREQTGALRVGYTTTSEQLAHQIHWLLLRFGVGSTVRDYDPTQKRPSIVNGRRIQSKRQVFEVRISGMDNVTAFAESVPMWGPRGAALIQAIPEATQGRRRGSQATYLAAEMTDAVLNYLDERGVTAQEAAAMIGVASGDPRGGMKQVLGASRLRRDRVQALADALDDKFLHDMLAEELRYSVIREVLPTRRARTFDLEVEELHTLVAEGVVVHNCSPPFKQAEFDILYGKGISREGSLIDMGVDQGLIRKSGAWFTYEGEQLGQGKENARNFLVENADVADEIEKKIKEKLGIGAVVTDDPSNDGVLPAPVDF

[2] = biological target: T2, Histone-lysine N-methyltransferase NSD2 (Homo sapiens, UniProt O96028); format: biochemical
T2 sequence (O96028 whole entry): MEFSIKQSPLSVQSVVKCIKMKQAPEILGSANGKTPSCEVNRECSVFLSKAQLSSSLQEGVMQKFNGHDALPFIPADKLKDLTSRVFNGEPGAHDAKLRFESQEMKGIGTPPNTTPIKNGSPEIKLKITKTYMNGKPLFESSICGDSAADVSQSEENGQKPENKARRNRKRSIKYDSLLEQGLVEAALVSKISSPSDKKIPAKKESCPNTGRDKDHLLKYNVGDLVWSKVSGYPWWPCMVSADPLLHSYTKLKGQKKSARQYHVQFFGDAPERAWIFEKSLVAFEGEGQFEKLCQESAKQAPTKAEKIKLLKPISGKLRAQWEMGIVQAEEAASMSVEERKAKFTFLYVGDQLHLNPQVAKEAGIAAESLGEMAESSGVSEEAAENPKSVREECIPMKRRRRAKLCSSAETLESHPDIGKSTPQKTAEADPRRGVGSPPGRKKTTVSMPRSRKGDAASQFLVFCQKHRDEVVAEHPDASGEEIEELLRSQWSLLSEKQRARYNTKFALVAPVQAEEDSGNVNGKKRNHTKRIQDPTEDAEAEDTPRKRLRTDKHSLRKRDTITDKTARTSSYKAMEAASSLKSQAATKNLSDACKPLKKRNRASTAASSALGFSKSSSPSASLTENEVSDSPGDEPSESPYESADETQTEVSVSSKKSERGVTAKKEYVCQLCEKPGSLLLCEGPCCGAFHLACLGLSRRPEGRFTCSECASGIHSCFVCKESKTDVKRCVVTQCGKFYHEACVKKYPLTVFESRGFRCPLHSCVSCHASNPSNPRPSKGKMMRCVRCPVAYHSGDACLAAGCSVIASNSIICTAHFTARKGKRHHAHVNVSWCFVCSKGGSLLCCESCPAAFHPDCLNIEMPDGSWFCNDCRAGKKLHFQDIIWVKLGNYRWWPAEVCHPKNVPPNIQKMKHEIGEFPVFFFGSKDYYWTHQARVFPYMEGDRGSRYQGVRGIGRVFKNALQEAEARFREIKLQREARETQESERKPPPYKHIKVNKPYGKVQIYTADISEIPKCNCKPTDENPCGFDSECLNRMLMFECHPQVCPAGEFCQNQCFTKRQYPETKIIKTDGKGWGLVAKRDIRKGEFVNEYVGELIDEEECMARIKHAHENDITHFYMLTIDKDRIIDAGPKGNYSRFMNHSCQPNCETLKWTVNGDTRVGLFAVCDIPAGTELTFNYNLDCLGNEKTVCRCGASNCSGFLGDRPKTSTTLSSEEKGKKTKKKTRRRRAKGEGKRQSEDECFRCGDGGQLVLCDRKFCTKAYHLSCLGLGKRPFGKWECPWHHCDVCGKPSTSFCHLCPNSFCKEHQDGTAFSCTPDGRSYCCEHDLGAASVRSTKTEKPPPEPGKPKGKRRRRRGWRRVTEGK

[3] = biological target: Genome polyprotein (dengue virus type 2, UniProt P29990); assay: Dengue-2 NS5 methyltransferase inhibitors, primary screen, biochemical, confirmation dose response (AID 588689); format: functional
[4] = biological target: Bifunctional protein GlmU (Mycobacterium tuberculosis, UniProt P9WMN3); assay: Inhibitors of Mycobacterial Glucosamine-1-phosphate acetyl transferase (GlmU). Secondary screen.; design: species or system Mycobacterium tuberculosis H37Rv
Chain of Bifunctional protein GlmU (P9WMN3 whole entry): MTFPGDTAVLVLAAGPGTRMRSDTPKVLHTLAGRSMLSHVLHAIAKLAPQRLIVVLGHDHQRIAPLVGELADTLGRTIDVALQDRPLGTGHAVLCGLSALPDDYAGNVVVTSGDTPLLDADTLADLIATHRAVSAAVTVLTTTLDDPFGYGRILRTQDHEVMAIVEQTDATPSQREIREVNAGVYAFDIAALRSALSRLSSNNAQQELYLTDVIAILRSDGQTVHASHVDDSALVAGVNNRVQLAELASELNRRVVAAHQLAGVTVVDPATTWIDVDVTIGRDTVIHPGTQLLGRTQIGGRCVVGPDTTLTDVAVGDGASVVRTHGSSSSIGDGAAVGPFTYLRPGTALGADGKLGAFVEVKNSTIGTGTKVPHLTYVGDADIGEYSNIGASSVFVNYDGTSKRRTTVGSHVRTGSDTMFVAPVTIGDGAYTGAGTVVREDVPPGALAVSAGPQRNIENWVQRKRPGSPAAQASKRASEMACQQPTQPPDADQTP

Chain of Genome polyprotein (P29990 2492-3391 limits assumed): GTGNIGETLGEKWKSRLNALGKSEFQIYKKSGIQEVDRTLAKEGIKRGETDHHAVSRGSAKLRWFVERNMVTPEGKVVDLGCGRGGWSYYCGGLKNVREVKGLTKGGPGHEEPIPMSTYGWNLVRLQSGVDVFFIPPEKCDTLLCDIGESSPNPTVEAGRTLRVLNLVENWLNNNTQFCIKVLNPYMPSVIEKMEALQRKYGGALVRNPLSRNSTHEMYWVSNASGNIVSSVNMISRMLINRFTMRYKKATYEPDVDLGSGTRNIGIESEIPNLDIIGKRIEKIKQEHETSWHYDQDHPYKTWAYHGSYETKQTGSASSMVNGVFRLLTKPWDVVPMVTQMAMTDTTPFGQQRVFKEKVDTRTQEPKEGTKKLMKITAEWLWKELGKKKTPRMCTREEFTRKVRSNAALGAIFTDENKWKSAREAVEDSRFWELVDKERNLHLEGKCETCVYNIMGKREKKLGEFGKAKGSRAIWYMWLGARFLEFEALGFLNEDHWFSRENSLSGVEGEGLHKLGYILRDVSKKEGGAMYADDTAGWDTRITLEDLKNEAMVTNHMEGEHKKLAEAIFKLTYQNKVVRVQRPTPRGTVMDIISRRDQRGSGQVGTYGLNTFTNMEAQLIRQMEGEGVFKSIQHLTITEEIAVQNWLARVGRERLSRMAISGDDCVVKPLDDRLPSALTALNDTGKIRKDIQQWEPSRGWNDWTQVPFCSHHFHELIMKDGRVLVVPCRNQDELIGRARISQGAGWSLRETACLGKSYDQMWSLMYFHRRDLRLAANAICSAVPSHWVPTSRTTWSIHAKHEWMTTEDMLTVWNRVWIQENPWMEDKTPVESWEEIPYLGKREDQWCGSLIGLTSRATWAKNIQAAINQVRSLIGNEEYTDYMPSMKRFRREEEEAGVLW

## COC(=O)c1ccc(-c2ccc(C(c3c(C)[nH][nH]c3=O)c3c(C)[nH][nH]c3=O)o2)cc1
[1]
  EC50: 0.348 µM (active)
[2]
  AC50: 17.8 µM (active)
[3]
  IC50: > 100 µM (active)

## Oc1ccc(/C=N/NC(=S)Nc2cccnc2)c(O)c1O
[4]
  IC50: 83 µM (active)
[3]
  IC50: 24.4 µM (active)
